Several values for one entry are separate records, joined by “and”; a condition that tells them apart may be missing. Identical values can stand only once. Like-named read-outs stand apart in the source and are kept apart here.
Biological target: T1, α-synuclein fibrils (Homo sapiens, UniProt P37840)
T1 construct: made in house; host or cells: E. coli BL21(DE3)RIL
Test: ThT competitive assay for α-synuclein fibrils (Table 1)
Format: binding
Conditions: for EC50: α-synuclein fibrils
Experimental: Upon binding to amyloid fibrils, a peak at approximately 440 nm becomes dominant with the fluorescent emission maximum shifted to 480 nm. This is accompanied by a strong enhancement of the fluorescence.
α-Synuclein recombinant protein was produced in E. coli. […] Freshly transformed BL21 colonies were inoculated into 2 L baffled flasks containing 250 mL sterilized TB (1.2% bactotryptone, 2.4% yeast extract, 0.4% glycerol, 0.17 M KH2PO4, 0.72 M K2HPO4) with 50 μg/ml ampicillin, and incubated overnight at 37° C. with shaking.
To determine the concentration of fibrils, the reaction mixture (100 μL) was centrifuged at 18,000×g for 10 minutes to separate fibrils from monomer. The α-synuclein monomer and other soluble proteins in the supernatant were removed, and the fibril pellet was resuspended in 100 μL solution of Tris-HCl (20 mM) and NaCl (100 mM). This fibril suspension was used in a bicinchoninic acid (BCA) protein assay along with a bovine serum albumin (BSA) standard curve to determine the concentration of fibrils in the 72 hour fibril reaction mixture.
To prepare the fibrils for performing binding assays, the fibril reaction mixture prepared above was centrifuged at 18,000×g for 10 minutes.
Once the ThT-α-synuclein saturation binding curve and dissociation constant (Kd) were determined the competitive assay for determining the binding affinity of various test compounds was conducted. […] The mixture was incubated at room temperature for 60 minutes on the shaking plate. The fluorescent intensity for each cell was measured by the fluorescence reader at λex and λem. The Ki value for each compound was calculated by the corresponding inhibition curve.
The Ki values were derived from the EC50 values using the Cheng-Prusoff equation: Ki=EC50/(1+[radioligand]/Kd). See FIGS. 17.1-31.2 for the inhibition curves for each compound in the ThioT competitive binding assay.

[1] = average, read-out: Ki (nM) α-syn (avg)
[2] = individual determinations, read-out: Ki (nM) α-syn
[3] = average, read-out: EC50 (nM) EC50 (avg)
[4] = individual determinations, read-out: EC50 (nM) EC50

Row | SMILES | Ki [1] | Ki [2] | EC50 [3] | EC50 [4]
1 | COc1ccc2c(c1)NC(=O)/C(=C/C=C/c1ccc([N+](=O)[O-])cc1)O2 [TZ-19-122] | 598 nM | 598 nM | – | –
2 | COc1ccc2c(c1)NC(=O)/C(=C/C=C/c1ccc([N+](=O)[O-])cc1)S2 [TZ-19-124] | 254 nM | 254 nM | – | –
3 | C(=C\c1ccccc1)/CN1c2ccccc2Sc2ccccc21 [TZ-19-126] | 3880 nM | 3880 nM | – | –
4 | C(=C\c1ccccc1)/CN1c2ccccc2Oc2ccccc21 [TZ-19-136] | 3060 nM | 3060 nM | – | –
5 | CN(C)c1ccc(/C=C/CN2c3ccccc3Oc3ccccc32)cc1 [TZ-19-138] | 3090 nM | 3090 nM | – | –
6 | COc1ccc2c(c1)Oc1cc([N+](=O)[O-])ccc1N2C/C=C/c1ccc(N(C)C)cc1 [TZ-19-140] | 467 nM | 467 nM | – | –
7 | COc1ccc2nc(/C=C/c3ccccc3)ccc2c1 [TZ-19-144] | 196 nM | 196 nM | – | –
8 | COc1ccc2ccc(/C=C/c3ccccc3)nc2c1 [TZ-19-146] | 666 nM | 666 nM | – | –
9 | COc1cccc2ccc(/C=C/c3ccccc3)nc12 [TZ-19-148] | 614 nM | 614 nM | – | –
10 | COc1cccc2nc(/C=C/c3ccccc3)ccc12 [TZ-19-152] | 532 nM | 532 nM | – | –
11 | COc1ccc2nc(/C=C/c3ccncc3)ccc2c1 [TZ-19-158] | 29.1 nM | 29.1 nM | – | –
12 | COc1ccc(C(=O)C2CCN(C(=O)COC(=O)c3ccc(C(C)(C)C)cc3)CC2)cc1 [TZ-20-11] | 5090 nM | 5090 nM | – | –
13 | COc1ccc(C2CCN(C(=O)COC(=O)c3ccc(C(C)(C)C)cc3)CC2)cc1 [TZ-20-23] | 109 nM | 109 nM | – | –
14 | COC(=O)c1ccc(/C=C/c2ccncc2)cc1 [TZ-20-35] | 16.1 nM | 16.1 nM | – | –
15 | COc1ccc(C2CCN(C(=O)c3ccc(/C=C/c4ccncc4)cc3)CC2)cc1 [TZ-20-39] | 2460 nM | 2460 nM | – | –
16 | COc1ccc(C(=O)N2CCN(C(=O)c3ccc(/C=C/c4ccncc4)cc3)CC2)cc1 [TZ-20-45] | 181 nM | 181 nM | – | –
17 | COc1ccc(C(=O)C2CCN(C(=O)c3ccc(/C=C/c4ccncc4)cc3)CC2)cc1 [TZ-20-51] | 184 nM | 184 nM | – | –
18 | O=[N+]([O-])c1ccc(/C=C/c2ccncc2)cc1 [TZ-20-59] | 52.8 nM | 52.8 nM | – | –
19 | O=C(OCCF)c1ccc(/C=C/c2ccncc2)cc1 [TZ-20-63] | 96 nM | 96 nM | – | –
20 | CC(C)OC(=O)c1ccc(/C=C/c2ccncc2)cc1 [TZ-20-65] | 75.6 nM | 75.6 nM | – | –
21 | CNC(=O)c1ccc(/C=C/c2ccncc2)cc1 [TZ-20-69] | 85.6 nM | 85.6 nM | – | –
22 | Fc1ccc(/C=C/c2ccncc2)cc1 [TZ-20-73] | 432 nM | 432 nM | – | –
23 | FC(F)(F)c1ccc(/C=C/c2ccncc2)cc1 [TZ-20-75] | 36.8 nM | 36.8 nM | – | –

Row | SMILES | Ki [1] | Ki [2] | EC50 [3] | EC50 [4]
24 | COC(=O)C(Cc1ccc(O)cc1)NC(=O)c1ccc(/C=C/c2ccncc2)cc1 (centres unmarked) [TZ-20-77] | 523 nM | 523 nM | – | –
25 | O=C(NCCF)c1ccc(/C=C/c2ccncc2)cc1 [TZ-20-79] | 115 nM | 115 nM | – | –
26 | COc1ccccc1NC(=O)c1ccc(/C=C/c2ccncc2)cc1 [TZ-20-81] | 150 nM | 150 nM | – | –
27 | COc1ccc(NC(=O)c2ccc(/C=C/c3ccncc3)cc2)cc1 [TZ-20-83] | – | 19.1 nM | – | –
28 | CNc1ccc(/C=C/c2ccncc2)cc1 [TZ-20-97] | – | 33.9 nM | – | –
29 | COC(=O)c1ccc(/C=C/C=C/c2ccncc2)cc1 [TZ-20-111] | – | 56 nM | – | –
30 | COc1ccc(/C=C/c2cnccn2)cc1 [TZ-22-1-2] | 31.9 nM | 31.9 nM | – | –
31 | COc1ccc(/C=C/c2ccncn2)cc1 [TZ-22-19-1] | 154 nM | 154 nM | – | –
32 | COc1ccc(/C=C/c2cccnn2)cc1 [TZ-22-23-1] | 1140 nM | 1140 nM | – | –
33 | COc1ccc(/C=C/c2ncccn2)cc1 [TZ-22-31-1] | 2770 nM | 2770 nM | – | –
34 | CN(C)c1ccc(/C=C/c2cnccn2)cc1 [TZ-22-35-1] | 698 nM | 698 nM | – | –
35 | COc1ccc(/C=C/c2cnccn2)cc1OC [TZ-22-37-1] | 213 nM | 213 nM | – | –
36 | Brc1ccc(/C=C/c2cnccn2)cc1 [TZ-22-47-1] | 76.7 nM | 76.7 nM | – | –
37 | COc1cccc(/C=C/c2cnccn2)c1 [TZ-22-49-1] | 117 nM | 117 nM | – | –
38 | COc1ccc2ccc(/C=C/c3ccncc3)nc2c1 [TZ-23-02] | 71.8 nM | 71.8 nM | – | –
39 | COc1cccc2nc(/C=C/c3ccncc3)ccc12 [TZ-23-06] | 96.3 nM | 96.3 nM | – | –
40 | COc1ccc2nc(/C=C/c3cnccn3)ccc2c1 [TZ-23-12] | 36.4 nM | 36.4 nM | – | –
41 | COc1ccc2ccc(/C=C/c3cnccn3)nc2c1 [TZ-23-16] | 3180 nM | 3180 nM | – | –
42 | COc1cc(/C=C/c2cnccn2)nc2ccccc12 [TZ-23-20] | 3030 nM | 3030 nM | – | –
43 | O=C(Nc1ccc(Br)cc1)c1ccc(/C=C/c2ccncc2)cc1 [TZ-23-52] | 10.4 nM | – | – | –
44 | O=C(Nc1ccc(I)cc1)c1ccc(/C=C/c2ccncc2)cc1 [TZ-23-56] | 19.8 nM | 19.8 nM | – | –
45 | O=C(Nc1ccc(OCCF)cc1)c1ccc(/C=C/c2ccncc2)cc1 [TZ-23-88] | 32.1 nM | 24.3 nM and 40 nM | 83.8 nM | 63.5 nM and 104 nM
46 | Fc1ccc(-c2ccc(-c3nc4cc(Br)ccc4o3)cc2C(F)(F)F)cn1 [TZ-31-108] | 1540 nM | 1540 nM | 4030 nM | 4030 nM

Row | SMILES | Ki [1] | Ki [2] | EC50 [3] | EC50 [4]
47 | OCc1ccc2oc(-c3ccc(-c4ccc(F)nc4)c(C(F)(F)F)c3)nc2c1 [TZ-31-123] | 31400 nM | 31400 nM | 82000 nM | 82000 nM
48 | COC(=O)c1ccc2oc(-c3ccc(-c4ccc(F)nc4)c(C(F)(F)F)c3)nc2c1 [TZ-31-125] | 1560 nM | 1560 nM | 4090 nM | 4090 nM
49 | COc1ccc(/C=C/c2ccoc2)cc1 [TZ-34-27] | 551 nM | 1140 nM and 201 nM and 310 nM | 1440 nM | 2990 nM and 527 nM and 812 nM
50 | COc1ccc(/C=C/c2cncs2)cc1 [TZ-34-35] | 323 nM | 313 nM and 333 nM | 845 nM | 819 nM and 871 nM
51 | COc1ccc(/C=C/c2cc(C)cs2)cc1 [TZ-34-38] | 252 nM | 387 nM and 114 nM and 256 nM | 661 nM | 1010 nM and 299 nM and 671 nM
52 | COc1ccc(/C=C/c2cc(Br)cs2)cc1 [TZ-34-39] | 256 nM | 233 nM and 278 nM | 668 nM | 609 nM and 727 nM
53 | COc1ccc(/C=C/c2ccc(-c3cccs3)s2)cc1 [TZ-34-40] | 450 nM | 500 nM and 400 nM | 1180 nM | 1310 nM and 1050 nM
54 | COc1ccc(/C=C/c2ccc(C=O)s2)cc1 [TZ-34-41] | 148 nM | 148 nM | 387 nM | 387 nM
55 | COc1ccc(/C=C/c2ccc(CO)s2)cc1 [TZ-34-46] | 108 nM | 105 nM and 110 nM | 281 nM | 275 nM and 287 nM
56 | Brc1ccc(/C=C/c2cccs2)cc1 [TZ-34-55] | 198 nM | 198 nM | 519 nM | 519 nM
57 | Brc1ccc(/C=C/c2ccsc2)cc1 [TZ-34-58] | 319 nM | 319 nM | 834 nM | 834 nM
58 | Fc1ccc(/C=C/c2ccsc2)cc1 [TZ-34-59] | 860 nM | 860 nM | 2250 nM | 2250 nM
59 | Fc1ccc(/C=C/c2cccs2)cc1 [TZ-34-60] | 1000 nM | 1000 nM | 1000 nM | 1000 nM
60 | Ic1ccc(/C=C/c2cccs2)cc1 [TZ-34-63] | 80 nM | 80 nM | 208 nM | 208 nM
61 | Ic1ccc(/C=C/c2ccsc2)cc1 [TZ-34-64] | 115 nM | 115 nM | 300 nM | 300 nM
62 | O=[N+]([O-])c1ccc(/C=C/c2cccs2)cc1 [TZ-34-74] | 55 nM | 55 nM | 145 nM | 145 nM
63 | Ic1ccc(/C=C/c2ccoc2)cc1 [TZ-34-86] | 134 nM | 117 nM and 152 nM | 352 nM | 306 nM and 398 nM
64 | COc1ccc(/C=C/c2cc3ccccc3s2)cc1 [TZ-34-87] | 884 nM | 884 nM | 2310 nM | 2310 nM
65 | COc1ccc(/C=C/c2ccc(C(=O)NCCF)s2)cc1 [TZ-34-94] | 160 nM | 223 nM and 61 nM and 197 nM | 419 nM | 583 nM and 160 nM and 514 nM
66 | CN(C)c1ccc(/C=C/C=C/c2cccs2)cc1 [TZ-34-97] | 69 nM | 69 nM | 180 nM | 180 nM
67 | C(=C\c1cccs1)/c1ccncc1 [TZ-34-100] | 604 nM | 604 nM | 1580 nM | 1580 nM
